Experimental data: patent publication US20240358727A1, “MICROSCALE THERMOPHORESIS TO EVALUATE CHANNEL LIPID INTERACTIONS AND METHODS OF TREATING NAV CHANNELS RELATED DISEASES” (Northeastern University, priority 2023, published 2024)
“Also recorded” adds a separate entry of the source.

Legend:
[1] = target: T1, Nav1.5 channel currents (INa, ILATE) in M3q iPS-CMs (Homo sapiens, UniProt Q14524); test: Whole-cell patch-clamp of INa and ILATE in M3q-DREADD iPS-CMs activated with CNO; assay type: cell-based; details: for effect on CNO-evoked increase in ILATE / effect on CNO-evoked leftwards shifts in V½ACT and V½SSI: 200 μM diC8-PIP2 in pipette; for effect on CNO (M3q activation) effects on V½ACT, V½SSI and ILATE: staurosporine 1 μM 1-hour preincubation, BAPTA 10 mM in pipette, U73122 5 μM, diC8-PIP2 200 μM in pipette
T1 construct: host or cells: human iCell^2 iPS cardiomyocytes (transfected with M3q DREADD in A5; endogenous AT1 receptor in A7)
Method: (§1) Control is CNO application to cells with no M3q. Mean±SD % fluorescence change for 20 cells per group; an example photobleaching montage is inset. […] Leftwards shifts in each parameter are precluded by U73122 or by 200 μM diC8-PIP2 in the pipette but are not sensitive to staurosporine or BAPTA. The cells were perfused with an extracellular solution containing (in mM): 130 NaCl, 5 CsCl, 1.2 MgCl2, 1.5 CaCl2), 8 Glucose, 10 HEPES (pH7.4). […] nitrendipine was added to the recording solution to block Ca^2+ flux through Cav channels. Patch pipettes with a resistance of 2.5-4 MQ are filled with a solution containing (in mM): 60 CsCl, 80 CsF, 2 MgCl2, 10 EGTA, 5 Na2ATP, 5 HEPES (pH 7.4). Currents were low pass (Bessel) filtered at 9 kHz and digitized at 50 kHz and were collected from cells with a series resistance <15 MQ; this was compensated by 70%.
Results. Studies are designed to evaluate if hydrolysis of PIP2 modulates Nav1.5 channel currents in cardiomyocytes. To perform these experiments, we used human iPS cardiomyocytes (iCell^2 iPS-CMs) from Fuji-Film Cellular Dynamics. These iPS-CMs are a valuable model system for human cardiomyocytes that retain many of the key characteristics of the native cells. Here, we transfected the iPS-CMs to express the Gαq-coupled M3q Designer Receptors Exclusively Activated by Designer Drugs (DREADD) receptor. We use a magnetic transfection system from Oz Biosciences that we have previously employed with cardiomyocytes. First, we tested the efficacy of M3q to hydrolyze PIP2 in our model system. To accomplish this, we studied uncoupling of the PIP2 biosensor iRFP-PHPLCδ1 from the plasma membrane in response to chemogenic activation of M3q by 100 nM clozapine N-oxide (CNO, Tocris Biosciences).
These findings are consistent with our prior observations and the work using optogenetically activated PI-phosphatases to deplete PIP2 in HEK293 cells […] Xenopus laevis oocytes. […] Having established a time frame for PIP2 hydrolysis in our system, we used whole-cell patch-clamp to study INa in paired experiments, before and after chemogenic activation of M3q. Applying 100 nM CNO evoked a leftward shift in the current-voltage (I-V) relationship of INa such that peak INa shifted from −25 to −35 mV. At −35 mV, the peak current-density increased from −220±5 pA/pF to −266±4 pA/pF at −35 mV (n=8, P<0.001, paired Student's t-test). […] However, in contrast to our findings with Nav1.4, activating M3q signaling also left-shifted the steady state inactivation curve of Nav1.5 (V½SSI), from −81.4±2 to −89.7±2 mV (n=8, P<0.01, paired t-test; FIGS. 2C, 2D). These studies indicate that Nav1.5 channels are regulated by hydrolysis of PIP2 and that there are distinctions between PIP2 regulation of Nav1.5 and Nav1.4.
Next, we studied the effect of M3q-activation on ILATE by recording currents evoked by a 400 ms depolarizing pulse to −20 mV before and during receptor activation. The magnitude of ILATE represents the mean current 150-200 ms after peak INa and is expressed as a percentage of peak INa. […] The effects of M3q activation on V½ACT, V½SSI, and the development of ILATE were not affected by staurosporine (1 μM, 1-hour preincubation) or BAPTA (10 mM in the recording pipette), making a role for IP3 or DAG unlikely. […] Similar data were obtained for Nav1.5 expressed with Navβ1 and the M3q-DREADD receptor in HEK293T cells. This experiment validates that the findings are not restricted to a particular model system or cellular environment.
Measure modulation in INa and ILATE by endogenous Gαq signaling. Like native cardiomyocytes, human iPS-CMs express AT1 receptors. Here, the effects of Ang II (Tocris) on Nav1.5 channel function in iPS-CMs is tested using four whole-cell patch-clamp recording protocols. […]

[2] = system: PIP2 hydrolysis (iRFP-PHPLCδ1 biosensor); test: TIRFM uncoupling of PIP2 biosensor iRFP-PHPLCδ1 from the membrane of M3q iPS-CMs; assay type: cell-based, human; details: 100 nM CNO
Method: as §1
Results. Studies are designed to evaluate if hydrolysis of PIP2 modulates Nav1.5 channel currents in cardiomyocytes. To perform these experiments, we used human iPS cardiomyocytes (iCell^2 iPS-CMs) from Fuji-Film Cellular Dynamics. These iPS-CMs are a valuable model system for human cardiomyocytes that retain many of the key characteristics of the native cells. Here, we transfected the iPS-CMs to express the Gαq-coupled M3q Designer Receptors Exclusively Activated by Designer Drugs (DREADD) receptor. […]

[3] = system: Nav1.5 channel currents (INa, ILATE) in iPS-CMs; test: Whole-cell patch-clamp of INa and ILATE in iPS-CMs treated with Ang II; assay type: cell-based, human; details: 100 nM Ang II
Method: Control is CNO application to cells with no M3q. Mean±SD % fluorescence change for 20 cells per group; an example photobleaching montage is inset. […] The cells were perfused with an extracellular solution containing (in mM): 130 NaCl, 5 CsCl, 1.2 MgCl2, 1.5 CaCl2), 8 Glucose, 10 HEPES (pH7.4). […] nitrendipine was added to the recording solution to block Ca^2+ flux through Cav channels. Patch pipettes with a resistance of 2.5-4 MQ are filled with a solution containing (in mM): 60 CsCl, 80 CsF, 2 MgCl2, 10 EGTA, 5 Na2ATP, 5 HEPES (pH 7.4). Currents were low pass (Bessel) filtered at 9 kHz and digitized at 50 kHz and were collected from cells with a series resistance <15 MQ; this was compensated by 70%.
The data are mean±sem for 4 cells per experiment.
Measure modulation in INa and ILATE by endogenous Gαq signaling. Like native cardiomyocytes, human iPS-CMs express AT1 receptors. Here, the effects of Ang II (Tocris) on Nav1.5 channel function in iPS-CMs is tested using four whole-cell patch-clamp recording protocols. Recording solutions and amplifier settings are described in the legend of FIG. 2: • i) I-V (and G-V): The current-voltage (I-V) relationship reports on current-density across the physiological voltage range and provides a conductance voltage (G-V) relationship that is normalized and fitted with a Boltzmann function to illustrate the voltage-dependence of activation, V½ACT. • ii) SSI: a paired-pulse protocol to determine the voltage-dependence of steady-state inactivation (SSI). The prepulse is incrementally depolarized while the test-pulse remains at a fixed amplitude. […] This parameter is studied using paired steps to −30 mV and incrementally increasing the duration between the pulses. • iv) ILATE is studied using 400 ms depolarizing pulses to −20 mV. The pulse is repeated every 10 seconds for the duration of a time-course study. Subsequently, the cell is exposed to the state-dependent, late-current blocker ranolazine at 1 μM, as previously described. The magnitude of ILATE represents the mean current 150-200 ms after peak INa and is expressed as a percentage of peak INa, following ranolazine subtraction. The time course of a change in ILATE and the change in the time constant of fast inactivation are evaluated.
In each case, Nav1.5 currents is studied before and after the administration of Ang II. […] Next, we study the concentration-dependence of these effects, spanning the pathophysiological range (20-200 nM). Utilizing a non-saturating concentration of Ang II, we introduce pharmacological tools to determine the effects on Nav1.5 function attributable to PIP2 hydrolysis. […] Subsequently, we block PIP2 hydrolysis using the PLCβ inhibitor, U73122 (5 μM, Tocris Biosciences). […] We test if downstream products of PIP2 hydrolysis alter Nav1.5 currents using the PKC inhibitor staurosporine (1 μM, 1-hour preincubation, Sigma-Aldrich) and the Ca^2+ chelator, BAPTA (10 mM in the pipette, Sigma-Aldrich).

T1 sequence (Q14524 whole entry): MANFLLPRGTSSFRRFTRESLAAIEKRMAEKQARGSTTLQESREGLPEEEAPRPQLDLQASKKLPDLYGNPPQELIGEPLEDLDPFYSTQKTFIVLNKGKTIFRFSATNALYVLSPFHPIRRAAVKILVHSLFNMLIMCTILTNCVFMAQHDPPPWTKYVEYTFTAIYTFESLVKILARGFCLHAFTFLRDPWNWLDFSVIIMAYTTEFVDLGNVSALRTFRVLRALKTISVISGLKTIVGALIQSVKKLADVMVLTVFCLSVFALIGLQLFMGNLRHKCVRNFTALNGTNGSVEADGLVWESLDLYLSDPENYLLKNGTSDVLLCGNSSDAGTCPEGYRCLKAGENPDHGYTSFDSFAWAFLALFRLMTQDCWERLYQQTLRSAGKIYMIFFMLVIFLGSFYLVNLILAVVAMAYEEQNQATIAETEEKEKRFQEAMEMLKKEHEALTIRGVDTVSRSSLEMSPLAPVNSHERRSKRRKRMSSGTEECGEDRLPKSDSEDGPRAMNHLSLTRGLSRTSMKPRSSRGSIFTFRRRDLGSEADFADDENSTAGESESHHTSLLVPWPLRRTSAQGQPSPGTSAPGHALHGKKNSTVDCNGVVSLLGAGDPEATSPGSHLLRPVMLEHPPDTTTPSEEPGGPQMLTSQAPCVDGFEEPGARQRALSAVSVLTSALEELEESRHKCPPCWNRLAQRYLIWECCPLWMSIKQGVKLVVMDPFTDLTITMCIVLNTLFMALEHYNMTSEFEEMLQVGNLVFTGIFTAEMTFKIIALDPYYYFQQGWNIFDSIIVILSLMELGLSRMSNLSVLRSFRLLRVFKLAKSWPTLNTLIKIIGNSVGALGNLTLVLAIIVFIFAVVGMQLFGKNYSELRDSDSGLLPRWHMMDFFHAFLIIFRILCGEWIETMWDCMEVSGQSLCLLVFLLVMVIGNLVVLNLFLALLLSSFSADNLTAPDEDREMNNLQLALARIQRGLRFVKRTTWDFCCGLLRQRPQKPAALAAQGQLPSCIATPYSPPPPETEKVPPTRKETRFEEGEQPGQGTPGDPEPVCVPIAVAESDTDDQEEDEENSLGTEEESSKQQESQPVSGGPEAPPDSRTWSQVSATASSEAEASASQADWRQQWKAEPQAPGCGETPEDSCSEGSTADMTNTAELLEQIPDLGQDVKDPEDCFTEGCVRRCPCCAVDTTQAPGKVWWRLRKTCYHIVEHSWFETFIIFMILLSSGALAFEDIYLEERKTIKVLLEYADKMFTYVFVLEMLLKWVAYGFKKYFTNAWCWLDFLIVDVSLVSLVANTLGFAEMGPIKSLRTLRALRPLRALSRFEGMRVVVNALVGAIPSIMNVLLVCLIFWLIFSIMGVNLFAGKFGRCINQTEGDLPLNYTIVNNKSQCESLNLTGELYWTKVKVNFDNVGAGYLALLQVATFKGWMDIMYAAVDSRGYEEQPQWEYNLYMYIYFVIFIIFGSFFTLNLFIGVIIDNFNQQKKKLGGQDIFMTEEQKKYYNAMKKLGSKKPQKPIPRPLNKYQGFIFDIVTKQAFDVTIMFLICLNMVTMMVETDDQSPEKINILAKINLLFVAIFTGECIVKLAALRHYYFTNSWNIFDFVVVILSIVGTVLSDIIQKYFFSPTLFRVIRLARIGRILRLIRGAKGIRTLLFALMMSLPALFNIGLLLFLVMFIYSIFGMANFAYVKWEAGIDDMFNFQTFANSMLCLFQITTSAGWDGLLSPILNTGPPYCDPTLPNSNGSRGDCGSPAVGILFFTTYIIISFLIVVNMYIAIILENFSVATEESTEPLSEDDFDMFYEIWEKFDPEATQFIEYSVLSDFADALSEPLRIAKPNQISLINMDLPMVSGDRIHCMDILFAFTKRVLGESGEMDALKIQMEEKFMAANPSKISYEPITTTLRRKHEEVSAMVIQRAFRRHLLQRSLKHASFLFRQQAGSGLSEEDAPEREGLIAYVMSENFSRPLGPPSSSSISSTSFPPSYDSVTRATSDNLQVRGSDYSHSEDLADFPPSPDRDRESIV

## O=C(O)CN(CC(=O)O)c1ccccc1OCCOc1ccccc1N(CC(=O)O)CC(=O)O [BAPTA]
[1]; 100 nM CNO
  effect on CNO-evoked increase in ILATE: not sensitive
  effect on CNO-evoked leftwards shifts in V½ACT and V½SSI: not sensitive
  effect on CNO (M3q activation) effects on V½ACT, V½SSI and ILATE: not affected; also recorded: not blocked

## C[N+]1([O-])CCN(C2=Nc3cc(Cl)ccc3Nc3ccccc32)CC1 [CNO, clozapine N-oxide]
[1]; 100 nM CNO vs control
  fold increase in ILATE: 16 fold
[1]; 100 nM CNO, 400 ms pulse to −20 mV, control 0.22%
  ILATE: ~3.9 % of peak INa
[1]; 100 nM CNO, at −35 mV, before −220±5
  peak current-density: −266±4 pA/pF
[1]; 100 nM CNO, paired before/after
  leftward shift in V½ACT: −10±5 mV
[1]; 100 nM CNO, before CNO −25 mV
  voltage of peak INa (I-V relationship): −35 mV
[1]; 100 nM CNO, before −81.4±2
  V½SSI: −89.7±2 mV
[2]
  time to complete uncoupling of iRFP-PHPLCδ1 from the membrane: ≤ 200 s

## COc1ccc2c(c1)CC[C@@H]1[C@@H]2CC[C@]2(C)[C@@H](NCCCCCCN3C(=O)C=CC3=O)CC[C@@H]12 [U73122]
[1]; 100 nM CNO
  effect on CNO-evoked increase in ILATE: precluded
  effect on CNO-evoked leftwards shifts in V½ACT and V½SSI: precluded
  effect on CNO (M3q activation) effects on V½ACT, V½SSI and ILATE: blocked; also recorded: abolished
[2]; U73122 5 μM
  uncoupling of iRFP-PHPLCδ1 after M3q activation: does not occur

## CN[C@@H]1C[C@H]2O[C@@](C)([C@@H]1OC)n1c3ccccc3c3c4c(c5c6ccccc6n2c5c31)C(=O)NC4 [staurosporine]
[1]; 100 nM CNO
  effect on CNO-evoked increase in ILATE: not sensitive
  effect on CNO-evoked leftwards shifts in V½ACT and V½SSI: not sensitive
  effect on CNO (M3q activation) effects on V½ACT, V½SSI and ILATE: not affected; also recorded: not blocked

## angiotensin II (DRVYIHPF; Angiotensin-2; UniProt P01019 25-32, looked up) [Ang II, agonist of the Gαq-coupled AT1 receptor (Tocris)]
[3]
  leftward shift in V½ACT: −7 mV
  leftward shift in V½SSI: −7 mV
  peak INa: increased; also recorded: elevated
  time over which ILATE increased: ~250 s
[3]; before 0.15±0.1
  ILATE: 3.6±0.3 % of IPEAK
